Measured values published in ChEMBL document CHEMBL1201862, “PubChem BioAssay data set” (2004).
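Following 48 hours of exposure in 96-well plates, responses at five concentrations were used to interpolate endpoints linearly. Abbreviation: GI50, concentration required for 50% inhibition of growth.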 Calls of active or inactive are those of the source. Rule as the data show it: active = GI50 up to about 1.1 µM and inactive = higher.

Experiments:
Experiment in all cases: NCI anticancer screen, dose series, 48 h
Hs-578T = test system: Hs-578T
RPMI-8226 = test system: RPMI-8226
Malme-3M = test system: Malme-3M
SK-OV-3 = test system: SK-OV-3
SK-MEL-2 = test system: SK-MEL-2
OVCAR-8 = test system: OVCAR-8
SK-MEL-5 = test system: SK-MEL-5
IGROV-1 = test system: IGROV-1
HL-60 = test system: HL-60
OVCAR-4 = test system: OVCAR-4
COLO 205 = test system: COLO 205
EKVX = test system: EKVX
UACC-62 = test system: UACC-62
A498 = test system: A498
DU-145 = test system: DU-145
SF-539 = test system: SF-539
K562 = test system: K562
TK-10 = test system: TK-10
NCI-H522 = test system: NCI-H522

SMILES	GI50 (Hs-578T)	GI50 (RPMI-8226)	GI50 (Malme-3M)	GI50 (SK-OV-3)	GI50 (SK-MEL-2)	GI50 (OVCAR-8)	GI50 (SK-MEL-5)	GI50 (IGROV-1)	GI50 (HL-60)	GI50 (OVCAR-4)	GI50 (COLO 205)	GI50 (EKVX)	GI50 (UACC-62)	GI50 (A498)	GI50 (DU-145)	GI50 (SF-539)	GI50 (K562)	GI50 (TK-10)	GI50 (NCI-H522)
CCOC(=O)OC1(c2ccccc2)CCN(C)CC1	> 100 µM (inactive)	> 100 µM (inactive)	> 100 µM (inactive)	> 100 µM (inactive)	> 100 µM (inactive)	> 100 µM (inactive)	> 100 µM (inactive)	> 100 µM (inactive)	> 100 µM (inactive)	> 100 µM (inactive)	> 100 µM (inactive)	> 100 µM (inactive)	> 100 µM (inactive)	> 100 µM (inactive)	> 100 µM (inactive)	> 100 µM (inactive)	> 100 µM (inactive)	> 100 µM (inactive)	> 100 µM (inactive)
Nc1nc(Sc2ccc([N+](=O)[O-])c3nonc23)c2nc[nH]c2n1	6.58 µM (inactive)	0.31 µM (active)	1.02 µM (active)	0.425 µM (active)	1.06 µM (active)	0.721 µM (active)	2.15 µM (inactive)	3.57 µM (inactive)	1.71 µM (inactive)	1.14 µM (inactive)	1.61 µM (inactive)	1.85 µM (inactive)	0.43 µM (active)	13.7 µM (inactive)	0.705 µM (active)	1.53 µM (inactive)	0.369 µM (active)	0.687 µM (active)	0.733 µM (active)
Nc1ncnc2c1ccn2C/C=C\CO	> 100 µM (inactive)	> 100 µM (inactive)	> 100 µM (inactive)	> 100 µM (inactive)	> 100 µM (inactive)	> 100 µM (inactive)	> 100 µM (inactive)	> 100 µM (inactive)	> 100 µM (inactive)	> 100 µM (inactive)	> 100 µM (inactive)	> 100 µM (inactive)	> 100 µM (inactive)	> 100 µM (inactive)	> 100 µM (inactive)	> 100 µM (inactive)	> 100 µM (inactive)	> 100 µM (inactive)	84.7 µM (inactive)
CC(C)n1c2c(c3ccccc3c1=O)C(=O)c1ccccc1-2	> 100 µM (inactive)	> 100 µM (inactive)	> 100 µM (inactive)	> 100 µM (inactive)	> 100 µM (inactive)	> 100 µM (inactive)	> 100 µM (inactive)	> 100 µM (inactive)	> 100 µM (inactive)	50.5 µM (inactive)	> 100 µM (inactive)	> 100 µM (inactive)	> 100 µM (inactive)	> 100 µM (inactive)	> 100 µM (inactive)	> 100 µM (inactive)	> 100 µM (inactive)	> 100 µM (inactive)	> 100 µM (inactive)
CC(C)(C)OC(=O)N1C(=O)OC[C@@H]2C=C[C@@H]21	> 100 µM (inactive)	> 100 µM (inactive)	> 100 µM (inactive)	> 100 µM (inactive)	> 100 µM (inactive)	> 100 µM (inactive)	> 100 µM (inactive)	> 100 µM (inactive)	> 100 µM (inactive)	> 100 µM (inactive)	> 100 µM (inactive)	> 100 µM (inactive)	> 100 µM (inactive)	> 100 µM (inactive)	> 100 µM (inactive)	> 100 µM (inactive)		> 100 µM (inactive)	> 100 µM (inactive)
O=C(CN1CCNCCN(CC(=O)N2CCCCC2)CCNCC1)N1CCCCC1	> 100 µM (inactive)	> 100 µM (inactive)	> 100 µM (inactive)	> 100 µM (inactive)	> 100 µM (inactive)	> 100 µM (inactive)	71.8 µM (inactive)	33.5 µM (inactive)	32.2 µM (inactive)	> 100 µM (inactive)	> 100 µM (inactive)	> 100 µM (inactive)	> 100 µM (inactive)	> 100 µM (inactive)	> 100 µM (inactive)	> 100 µM (inactive)	40.3 µM (inactive)	> 100 µM (inactive)	40.6 µM (inactive)
O=C(O)C1=NN(c2ccc(S(=O)(=O)O)cc2)C2(C1)C(Cl)C(=O)N2c1nc2ccccc2s1 (stereo not drawn)	47.6 µM (inactive)	13.1 µM (inactive)	20.5 µM (inactive)	15.6 µM (inactive)	15.6 µM (inactive)	17.6 µM (inactive)	12.8 µM (inactive)	7.83 µM (inactive)	16.2 µM (inactive)	16.4 µM (inactive)	18.6 µM (inactive)	16 µM (inactive)	14.4 µM (inactive)	19.1 µM (inactive)	19.1 µM (inactive)	4.4 µM (inactive)	22.1 µM (inactive)	18 µM (inactive)	10.7 µM (inactive)
O=[N+]([O-])c1ccc(Cl)cc1/C=N/C12CC3CC(CC(C3)C1)C2	51.8 µM (inactive)	20.2 µM (inactive)	43.6 µM (inactive)	> 100 µM (inactive)	> 66.8 µM (inactive)	43.1 µM (inactive)	56.6 µM (inactive)	55.7 µM (inactive)	5.77 µM (inactive)	63.5 µM (inactive)	45 µM (inactive)	> 100 µM (inactive)	30.6 µM (inactive)	> 100 µM (inactive)	> 100 µM (inactive)	31.7 µM (inactive)	4.98 µM (inactive)	> 100 µM (inactive)	> 100 µM (inactive)
CCCn1c2c(c3ccccc3c1=O)C(=O)c1ccccc1-2	44.5 µM (inactive)	> 28.8 µM (inactive)	76.7 µM (inactive)	> 100 µM (inactive)	> 100 µM (inactive)	61.1 µM (inactive)	11.2 µM (inactive)	> 57.7 µM (inactive)	1.78 µM (inactive)	> 100 µM (inactive)	> 54.6 µM (inactive)	> 76.7 µM (inactive)	> 100 µM (inactive)	> 48.4 µM (inactive)	> 48.2 µM (inactive)	> 55.2 µM (inactive)	> 100 µM (inactive)	61.8 µM (inactive)	2.37 µM (inactive)
O=C(O)c1nn(-c2ccccc2-c2nnc(O)nc2O)c(=O)[nH]c1=O	> 100 µM (inactive)	> 100 µM (inactive)	> 100 µM (inactive)	> 100 µM (inactive)	> 100 µM (inactive)	> 100 µM (inactive)	> 100 µM (inactive)	> 100 µM (inactive)	30.5 µM (inactive)	> 100 µM (inactive)	> 100 µM (inactive)	> 100 µM (inactive)	> 100 µM (inactive)	> 100 µM (inactive)	> 100 µM (inactive)	> 100 µM (inactive)	2.47 µM (inactive)	> 100 µM (inactive)	> 100 µM (inactive)
CC(=O)NNc1nc(-c2ccc([N+](=O)[O-])cc2)c(C#N)c(=O)n1C	27.1 µM (inactive)	21.1 µM (inactive)	> 100 µM (inactive)	> 100 µM (inactive)	> 100 µM (inactive)	27 µM (inactive)	> 100 µM (inactive)	16.8 µM (inactive)	25.9 µM (inactive)	20.1 µM (inactive)	44.6 µM (inactive)	38 µM (inactive)	66.8 µM (inactive)	25.5 µM (inactive)	34.2 µM (inactive)	18.3 µM (inactive)	24.3 µM (inactive)	24 µM (inactive)	22.1 µM (inactive)
O=C(O)c1ccc2c(c1)CC1(C2)Cc2cc3c(cc2C1=O)CCC3 (stereo not drawn)	> 100 µM (inactive)	> 100 µM (inactive)	> 100 µM (inactive)	> 100 µM (inactive)	> 100 µM (inactive)	97.9 µM (inactive)	93.8 µM (inactive)	> 100 µM (inactive)	> 100 µM (inactive)	> 100 µM (inactive)	> 100 µM (inactive)	> 100 µM (inactive)	> 100 µM (inactive)	19.5 µM (inactive)	> 100 µM (inactive)	> 100 µM (inactive)	> 100 µM (inactive)	> 100 µM (inactive)	> 100 µM (inactive)
CN1CCN(CCCBr)CC1	> 100 µM (inactive)	> 100 µM (inactive)	> 100 µM (inactive)	> 100 µM (inactive)	> 100 µM (inactive)	> 100 µM (inactive)	> 100 µM (inactive)	> 100 µM (inactive)	> 100 µM (inactive)	> 100 µM (inactive)	> 100 µM (inactive)	> 100 µM (inactive)	> 100 µM (inactive)	> 100 µM (inactive)	> 100 µM (inactive)	> 100 µM (inactive)	> 100 µM (inactive)	> 100 µM (inactive)	> 100 µM (inactive)
N#Cc1c(Cl)c2cc([N+](=O)[O-])ccc2n2c1nc1ccccc12	7.69 µM (inactive)	3.94 µM (inactive)	6.85 µM (inactive)	23.3 µM (inactive)	15.5 µM (inactive)	3.21 µM (inactive)	22.6 µM (inactive)		0.172 µM (active)	2.15 µM (inactive)	2.21 µM (inactive)	15.8 µM (inactive)	12 µM (inactive)	25.6 µM (inactive)	3.5 µM (inactive)	2.15 µM (inactive)	1.85 µM (inactive)	3.81 µM (inactive)	2.54 µM (inactive)
CC(=O)CCCCn1c(=O)c2c(nc(Br)n2C)n(C)c1=O	> 100 µM (inactive)	> 100 µM (inactive)	> 100 µM (inactive)	> 100 µM (inactive)	> 100 µM (inactive)	> 100 µM (inactive)	> 100 µM (inactive)	44.2 µM (inactive)	> 100 µM (inactive)	> 100 µM (inactive)	> 100 µM (inactive)	28.3 µM (inactive)	> 100 µM (inactive)	95.9 µM (inactive)	> 100 µM (inactive)	> 100 µM (inactive)	62.1 µM (inactive)	> 100 µM (inactive)	10.4 µM (inactive)
